Where a name gives a salt, the structure may show the parent alone.
Target: PDE4
Assay: In vitro enzyme assay: PDE4 inhibitory activity
Assay type: biochemical
Conditions: PDE4 enzyme solution from U937 cells (originated from human monocyte), 3H-cAMP substrate, room temperature 30 minutes
Method: U937 cells (originated from human monocyte) were cultured in PRMI 1640 medium containing 10% fetal bovine serum. The U937 cells were harvested and homogenized in 20 mM Tris-HCl buffer [pH 8.0, containing PMSF (1 mM), leupeptin (1 μg/ml) and pepstatin A (1 μg/ml)]. After centrifugation (at 15,000 rpm for 10 minutes), the supernatant was recovered and filtered through a 0.45 μm filter. The sample was applied to MonoQ (manufactured by Pharmacia, strong anion exchange resin) column and eluted by a density gradient of 0 to 0.8 M NaCl. Fractions from which the PDE activity was disappeared by 10 μM rolipram (a PDE4-selective inhibitor) were recovered and used as the enzyme solution for the measurement of PDE4 inhibitory activity.
The enzyme activity was measured by the following method. […] To an alumina column (100 μl), 50 μl of the supernatant was applied, eluted with 80 μl of 0.005 N hydrochloric acid, and radioactivity of the eluate was measured.
PDE4 inhibitory activity ratio of the compound of the present invention was calculated by the following equation: PDE4 inhibitory activity ratio (%)=(1−radioactivity in the presence of the compound of the present invention/radioactivity in the absence of the compound of the present invention)×100 […]

How did the IC50 turn out when `COc1ccc(C2(C#N)CCN(CC(=O)NO)CC2)cc1OC1CCCC1` [Example 3, N-hydroxy-2-(4-(3-cyclopentyloxy-4-methoxyphenyl)-4-cyanopiperidin-1-yl)acetamide·hydrochloride] was run?
Its IC50 is 0.03 nM.
